# Measured values taken from ChEMBL document CHEMBL3352679, “Structure and evaluation of antibacterial and antitubercular properties of new basic and heterocyclic 3-formylrifamycin SV derivatives obtained via 'click chemistry' approach” (Eur J Med Chem, 2014).
# System: Mycobacterium tuberculosis variant bovis
# Assay: Antituberculosis activity against Mycobacterium bovis after 14 days by serial microdilution method
# Type: functional
# Settings: 336 h
row,SMILES,MIC99 [µg/mL]
1,CCCc1cn(CCN2Cc3c4c(O)c5c(O)c(C)c6c(c5c3O)C(=O)[C@@](C)(O/C=C/[C@H](OC)[C@@H](C)[C@@H](OC(C)=O)[C@H](C)[C@H](O)[C@H](C)[C@@H](O)[C@@H](C)/C=C/C=C(/C)C2=N4)O6)nn1,0.5
2,CO[C@H]1/C=C/O[C@@]2(C)Oc3c(C)c(O)c4c(O)c(c(CNCCCN5CCCC5)c(O)c4c3C2=O)NC(=O)/C(C)=C\C=C\[C@H](C)[C@H](O)[C@@H](C)[C@@H](O)[C@@H](C)[C@H](OC(C)=O)[C@@H]1C,1
3,CCCCCc1cn(CCCN2Cc3c4c(O)c5c(O)c(C)c6c(c5c3O)C(=O)[C@@](C)(O/C=C/[C@H](OC)[C@@H](C)[C@@H](OC(C)=O)[C@H](C)[C@H](O)[C@H](C)[C@@H](O)[C@@H](C)/C=C/C=C(/C)C2=N4)O6)nn1,0.5
4,CO[C@H]1/C=C/O[C@@]2(C)Oc3c(C)c(O)c4c(O)c(c(CNCc5cn(CN6C(=O)c7ccccc7C6=O)nn5)c(O)c4c3C2=O)NC(=O)/C(C)=C\C=C\[C@H](C)[C@H](O)[C@@H](C)[C@@H](O)[C@@H](C)[C@H](OC(C)=O)[C@@H]1C,0.25
5,CO[C@H]1/C=C/O[C@@]2(C)Oc3c(C)c(O)c4c(O)c(c(CNC5CCN(Cc6ccccc6)CC5)c(O)c4c3C2=O)NC(=O)/C(C)=C\C=C\[C@H](C)[C@H](O)[C@@H](C)[C@@H](O)[C@@H](C)[C@H](OC(C)=O)[C@@H]1C,0.125
6,CO[C@H]1/C=C/O[C@@]2(C)Oc3c(C)c(O)c4c(O)c5c(c(O)c4c3C2=O)CN(Cc2cn(CN3C(=O)c4ccccc4C3=O)nn2)C(=N5)/C(C)=C\C=C\[C@H](C)[C@H](O)[C@@H](C)[C@@H](O)[C@@H](C)[C@H](OC(C)=O)[C@@H]1C,0.5
7,CCCc1cn(CCNCc2c3c(O)c4c(O)c(C)c5c(c4c2O)C(=O)[C@@](C)(O/C=C/[C@H](OC)[C@@H](C)[C@@H](OC(C)=O)[C@H](C)[C@H](O)[C@H](C)[C@@H](O)[C@@H](C)/C=C/C=C(/C)C(=O)N3)O5)nn1,1
8,CO[C@H]1/C=C\O[C@@]2(C)Oc3c(C)c(O)c4c(O)c(c(CNC5CCN(Cc6ccccc6)CC5)c(O)c4c3C2=O)NC(=O)/C(C)=C\C=C/[C@H](C)[C@H](O)[C@@H](C)[C@@H](O)[C@@H](C)[C@H](OC(C)=O)[C@@H]1C,0.125
9,CCCCCc1cn(CCCNCc2c3c(O)c4c(O)c(C)c5c(c4c2O)C(=O)[C@@](C)(O/C=C/[C@H](OC)[C@@H](C)[C@@H](OC(C)=O)[C@H](C)[C@H](O)[C@H](C)[C@@H](O)[C@@H](C)/C=C/C=C(/C)C(=O)N3)O5)nn1,0.5
10,CO[C@H]1/C=C/O[C@@]2(C)Oc3c(C)c(O)c4c(O)c(c(CNCCCn5ccnc5)c(O)c4c3C2=O)NC(=O)/C(C)=C\C=C\[C@H](C)[C@H](O)[C@@H](C)[C@@H](O)[C@@H](C)[C@H](OC(C)=O)[C@@H]1C,1
11,CO[C@H]1/C=C/O[C@@]2(C)Oc3c(C)c(O)c4c(O)c(c(CNCCN(C)C)c(O)c4c3C2=O)NC(=O)/C(C)=C\C=C\[C@H](C)[C@H](O)[C@@H](C)[C@@H](O)[C@@H](C)[C@H](OC(C)=O)[C@@H]1C,> 1
12,CO[C@H]1/C=C/O[C@@]2(C)Oc3c(C)c(O)c4c(O)c(c(CNCCN5CCCC5)c(O)c4c3C2=O)NC(=O)/C(C)=C\C=C\[C@H](C)[C@H](O)[C@@H](C)[C@@H](O)[C@@H](C)[C@H](OC(C)=O)[C@@H]1C,1
13,CO[C@H]1/C=C/O[C@@]2(C)Oc3c(C)c(O)c4c(O)c(c(/C=N/N5CCN(C)CC5)c(O)c4c3C2=O)NC(=O)/C(C)=C\C=C\[C@H](C)[C@H](O)[C@@H](C)[C@@H](O)[C@@H](C)[C@H](OC(C)=O)[C@@H]1C [RIFAMPIN],0.25
14,CO[C@H]1/C=C/O[C@@]2(C)Oc3c(C)c(O)c4c(O)c(c(C=O)c(O)c4c3C2=O)NC(=O)/C(C)=C\C=C\[C@H](C)[C@H](O)[C@@H](C)[C@@H](O)[C@@H](C)[C@H](OC(C)=O)[C@@H]1C,> 1
15,CO[C@H]1/C=C/O[C@@]2(C)Oc3c(C)c(O)c4c(O)c(c(CNCCCN5CCN(CCCNCc6c7c(O)c8c(O)c(C)c9c(c8c6O)C(=O)[C@@](C)(O/C=C/[C@H](OC)[C@@H](C)[C@@H](OC(C)=O)[C@H](C)[C@H](O)[C@H](C)[C@@H](O)[C@@H](C)/C=C/C=C(/C)C(=O)N7)O9)CC5)c(O)c4c3C2=O)NC(=O)/C(C)=C\C=C\[C@H](C)[C@H](O)[C@@H](C)[C@@H](O)[C@@H](C)[C@H](OC(C)=O)[C@@H]1C,> 1
